# Measured values reported in ChEMBL document CHEMBL1201862, “PubChem BioAssay data set” (2004).
# Activity calls are given as the source filed them.
# Tests used:
# [1] = biological target: Dual specificity tyrosine-phosphorylation-regulated kinase 1A (Rattus norvegicus, UniProt Q63470); format: biochemical, Homo sapiens
# [2] = biological target: T1, Caspase-6 (Homo sapiens, UniProt P55212); test: inhibition of CASP6 peptide cleavage – biochemical, VEID-R110 fluorescence, cherry-pick, dose response (AID 720632)
# T1 sequence (P55212 whole entry): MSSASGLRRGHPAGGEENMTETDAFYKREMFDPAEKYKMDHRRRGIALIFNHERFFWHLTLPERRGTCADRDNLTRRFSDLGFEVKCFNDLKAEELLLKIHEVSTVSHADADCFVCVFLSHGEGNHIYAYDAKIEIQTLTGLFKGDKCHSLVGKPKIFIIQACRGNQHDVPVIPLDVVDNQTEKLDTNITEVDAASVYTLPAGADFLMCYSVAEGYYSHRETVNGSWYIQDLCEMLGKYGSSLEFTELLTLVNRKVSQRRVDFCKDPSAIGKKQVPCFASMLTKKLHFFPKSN
# [3] = biological target: T2, DNA repair protein RAD52 homolog (Homo sapiens, UniProt P43351); format: functional, biochemical
# T2 sequence (P43351 whole entry): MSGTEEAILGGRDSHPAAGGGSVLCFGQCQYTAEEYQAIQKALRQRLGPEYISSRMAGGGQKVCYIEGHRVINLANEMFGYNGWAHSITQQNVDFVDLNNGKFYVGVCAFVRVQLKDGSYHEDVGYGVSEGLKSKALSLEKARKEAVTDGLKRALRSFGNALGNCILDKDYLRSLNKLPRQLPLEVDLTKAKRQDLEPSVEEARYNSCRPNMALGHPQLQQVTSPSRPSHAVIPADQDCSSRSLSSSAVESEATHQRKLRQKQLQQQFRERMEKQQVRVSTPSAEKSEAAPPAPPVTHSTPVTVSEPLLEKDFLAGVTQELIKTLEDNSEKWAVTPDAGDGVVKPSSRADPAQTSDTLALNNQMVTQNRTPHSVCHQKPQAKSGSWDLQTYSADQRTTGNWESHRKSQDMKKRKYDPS
# [4] = loss of viability in HepG2 cells – cell-based, CellTiter-Glo, cherry-picked, cytotoxicity control for Shn3 inhibitor project, dose response (AID 624134); format: functional
# [5] = HEK-293T viability loss after treatment – luminescence, T-cell screen hits, cytotoxicity control for TCR NF-kB inhibitor project, dose response (AID 489026); format: functional, cell-based;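 note: cells exposed to compound about 14 hours before the viability readout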
# [6] = reduction of Shn3 3'UTR-driven luciferase in osteoblasts – cell-based, Clone20 osteoblasts, firefly luciferase, cherry-picked, dose response (AID 624132); format: functional;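 note: firefly luciferase luminescence from reporter carrying the Shn3 3'UTR in osteoblasts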
# [7] = non-specific 3'UTR reporter inhibition in Clone20-Shn3RL – cell-based, Renilla luciferase, cherry-picked, counter-screen for Shn3 inhibitor project, dose response (AID 624133); format: functional
# [8] = HIV-1 AD8 envelope cell-cell fusion blockers – cherry-pick, dose response (AID 652062); format: functional, cell-based;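 note: luciferase signal from cell-cell fusion driven by HIV-1 clade B AD8 Env; potency is for inhibitors of fusion seen as a drop in luminescence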
# [9] = off-target signal loss in HeLa-CEM21 co-culture – HeLa F-luc CTL cells, cherry-picked, counter-screen for HIV-1 Env fusion inhibitor project, dose response (AID 652040); format: functional, cell-based;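 note: potency for signal decrease marking cytotoxic or nonspecific inhibition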
# [10] = blockers of HIV-1 ZM109 envelope-driven cell-cell fusion – HeLa effector, CEM target cells, luciferase, cherry-pick, dose response (AID 652058); format: functional, cell-based;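 note: luciferase signal from HIV-1 Env mediated cell-cell fusion of effector and target cells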
# [11] = blockers of HIV-1 envelope-mediated cell-cell fusion – cherry-pick, dose response (AID 652057); format: functional, cell-based
# [12] = test system: INS1; test: INS-1E survival protection against cytokine death – cell-based, luminescence, retest, dose response (AID 449756); format: functional; conditions: Rattus norvegicus;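 note: cell death triggered by IL-1 beta plus TNF-alpha plus IFN-gamma mixture; protective hits raise ATP signal compared with cytokine alone wells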
# [13] = biological target: T3, Cytochrome P450 1A2 (Homo sapiens, UniProt P05177);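 note: PubChem cytochrome P450 panel assay, CYP1A2 panel member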
# T3 sequence (P05177 whole entry): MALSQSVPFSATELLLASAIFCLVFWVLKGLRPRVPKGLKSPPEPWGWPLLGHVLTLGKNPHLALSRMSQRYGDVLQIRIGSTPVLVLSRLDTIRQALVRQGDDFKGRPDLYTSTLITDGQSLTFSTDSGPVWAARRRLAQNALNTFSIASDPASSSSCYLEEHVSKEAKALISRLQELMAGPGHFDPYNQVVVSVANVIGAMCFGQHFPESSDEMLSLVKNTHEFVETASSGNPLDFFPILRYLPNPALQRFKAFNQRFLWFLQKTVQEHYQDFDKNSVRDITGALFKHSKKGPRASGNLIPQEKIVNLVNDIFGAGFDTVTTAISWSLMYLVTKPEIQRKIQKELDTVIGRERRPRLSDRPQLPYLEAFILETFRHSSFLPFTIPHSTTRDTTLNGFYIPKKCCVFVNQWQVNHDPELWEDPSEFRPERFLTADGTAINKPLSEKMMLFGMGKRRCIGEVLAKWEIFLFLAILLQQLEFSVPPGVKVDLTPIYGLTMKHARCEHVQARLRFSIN
# [14] = test system: BJ; test: cells; format: functional, cell-based; conditions: Homo sapiens
# [15] = alpha-synuclein stem-loop luciferase translation blockers – H4 neuroglioma cells, luminescence, confirmation (AID 1988); format: functional, cell-based
# [16] = luciferase reporter signal suppression in cells – H4 neuroglioma cells, luminescence, dose response (AID 1990); format: functional, cell-based
# [17] = test system: BJ; test: BJ-TERT fibroblast viability loss – cell-based, RAS-independent, luminescence, dose response (AID 1933); format: functional; conditions: Homo sapiens
# [18] = DRD fibroblast viability loss – cell-based, non-viral oncogenic, luminescence, dose response (AID 1934); format: functional; conditions: Homo sapiens
# [19] = test system: BJ; test: BJ-TERT-LT-ST fibroblast viability loss – cell-based, RAS-independent, luminescence, dose response (AID 1935); format: functional; conditions: Homo sapiens;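 note: BJ fibroblasts immortalized with TERT plus LT and ST oncogenes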
# [20] = Luminescence Cell-Based Dose Response HTS to Identify Inhibitors of 5'UTR Stem-Loop Driven Prion Protein mRNA Translation in H4 Neuroglioblastoma Cells. [Related pubchem assays: 1827 (Project Summary), 1813 (Primary HTS)]; format: functional
# [21] = viability of uninfected HEp-2 cells – cell-based, HTS, cytotoxicity control for RSV inhibitor project, dose response (AID 2410); format: functional; conditions: human respiratory syncytial virus
# [22] = microbe, parasite or virus in culture; format: functional; conditions: Mycobacterium tuberculosis
# [23] = biological target: T4, Long-chain-fatty-acid--AMP ligase FadD28 (Mycobacterium tuberculosis, UniProt P9WQ59); test: Fluorescence polarization aasay to screen for inhibitors that compete for the binding of FadD28 to a bisubstrate Measured in Biochemical System Using Plate Reader - 2147-01_Inhibitor_Dose_CherryPick_Activity.; format: functional, Mycobacterium tuberculosis H37Rv
# T4 sequence (P9WQ59 whole entry): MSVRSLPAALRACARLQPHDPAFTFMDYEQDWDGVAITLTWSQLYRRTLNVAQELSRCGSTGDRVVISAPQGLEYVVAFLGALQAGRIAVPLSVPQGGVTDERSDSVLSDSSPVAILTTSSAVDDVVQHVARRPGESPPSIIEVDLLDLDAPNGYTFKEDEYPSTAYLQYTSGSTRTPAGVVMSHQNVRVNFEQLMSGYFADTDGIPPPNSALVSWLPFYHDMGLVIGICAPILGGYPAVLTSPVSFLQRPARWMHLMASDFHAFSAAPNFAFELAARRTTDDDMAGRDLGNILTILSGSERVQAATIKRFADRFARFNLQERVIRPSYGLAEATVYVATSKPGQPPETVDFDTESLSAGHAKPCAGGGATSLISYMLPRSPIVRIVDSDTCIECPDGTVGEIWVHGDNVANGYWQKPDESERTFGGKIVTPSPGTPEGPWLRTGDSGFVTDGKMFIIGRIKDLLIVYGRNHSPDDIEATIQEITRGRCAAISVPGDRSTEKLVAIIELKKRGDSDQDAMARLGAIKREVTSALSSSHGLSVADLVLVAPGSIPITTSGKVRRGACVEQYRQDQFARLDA
# [24] = biological target: T5, Carboxy-terminal domain RNA polymerase II polypeptide A small phosphatase 1 (Homo sapiens, UniProt Q9GZU7); test: CTDSP1 inhibitors, concentration-response, biochemical, absorbance readout, ultra-high-throughput screen actives (AID 540297); format: functional
# T5 sequence (Q9GZU7 whole entry): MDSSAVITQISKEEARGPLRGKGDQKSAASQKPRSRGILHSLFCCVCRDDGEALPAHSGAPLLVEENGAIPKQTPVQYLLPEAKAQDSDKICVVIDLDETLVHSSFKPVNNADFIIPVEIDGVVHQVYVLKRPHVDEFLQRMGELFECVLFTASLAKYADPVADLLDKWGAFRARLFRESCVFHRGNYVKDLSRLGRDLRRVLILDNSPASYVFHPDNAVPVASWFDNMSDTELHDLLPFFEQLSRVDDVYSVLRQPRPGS
structure (smiles),measurement,setting,value
Cc1ccc2[nH]c(/C(C#N)=C\c3cc(O)ccc3[N+](=O)[O-])nc2c1,AC50,[1],1.82 µM (active)
O=C(CC(SCCO)c1ccc2c(c1)OCO2)c1ccco1 (configuration not stated),AC50,[1],0.563 µM (active)
CCO/C=C1/C(=O)N(c2ccccc2OC)C(=O)c2ccccc21,AC50,[2],13.9 µM (active)
Cc1cc(N2CCN(C)CC2)nc2ccc(NC(S)=NCc3cccs3)cc12,AC50,[3],17 µM (active)
COc1ccc(CCNc2cc(N3CCN(C(=O)c4ccccc4F)CC3)ccc2[N+](=O)[O-])cc1OC,AC50,[4],0.845 µM (active)
same,IC50,[5],> 80 µM (inactive)
same,AC50,[6],1.26 µM (active)
same,AC50,[7],0.811 µM (active)
O=C1/C(=C/c2ccc3c(c2)OCO3)Oc2cc(OCC(=O)N3CC(O)C[C@H]3C(=O)O)ccc21 (some centres not stated),AC50,[1],3.56 µM (active)
C=C1CCN([C@H](C(=O)OCc2cccc(C)c2)C(C)C)S(=O)(=O)c2ccccc21,AC50,[8],4.76 µM (active)
same,AC50,[9],5.21 µM (active)
same,AC50,[10],3.64 µM (active)
same,AC50,[11],1.99 µM (active)
CC(C)Cn1c(N)c(C(=O)CSc2ccc3c(c2)OCCO3)c(=O)n(C)c1=O,AC50,[4],1.74 µM (active)
same,IC50,[5],> 80 µM (inactive)
same,AC50,[6],0.674 µM (active)
same,AC50,[7],1.57 µM (active)
same,AC50,[12],2.98 µM (active)
same,AC50,[13],31.6 µM (inconclusive)
CCN1C(=O)/C(=C\N2CCN(c3ccc(F)cc3)CC2)SC1=S,EC50,[14],> 150 µM (not active)
same,EC50,[15],> 120 µM (not active)
same,EC50,[16],16.1 µM (active)
same,EC50,[17],81.2 µM (active)
same,EC50,[18],> 150 µM (not active)
same,EC50,[19],> 150 µM (not active)
same,EC50,[20],> 120 µM (not active)
CCOC(=O)c1[nH]c2ccc(F)cc2c1NC(=O)CN1CCN(C/C=C/c2ccccc2)CC1,CC50,[21],8.01 µM (active)
same,CC50,[22],22.4 µM (active)
Cc1cccc(CSCCNC(=O)c2ccc(N(C)S(=O)(=O)c3ccccc3)cc2)c1,AC50,[23],> 100 µM (inactive)
Cc1ccc(NC(=O)Nc2sc(=S)n(C)c2C)cc1,AC50,[23],> 100 µM (inactive)
O=C(O)C1C2C=CC(C2)C1C(=O)Nc1ccccc1Br (configuration not stated),IC50,[24],16.7 µM (active)
same,AC50,[2],6.78 µM (active)
